Experimental findings from patent publication US12398107B2, “Fungicidal nitroanilino substituted pyrazoles” (FMC Corporation, priority 2018, dated 2025) are described below.

What all share (format): in vivo
In assay [1] the test system is Blumeria graminis f. sp. tritici. The assay is described as follows: Test C: wheat powdery mildew, preventive spray on wheat seedlings. The conditions noted are these: 50 ppm, rated after 8 days, 100 = 100% disease control, 0 = no control. The source says:
General protocol for preparing test suspensions for Tests A-F: the test compounds were first dissolved in acetone in an amount equal to 3% of the final volume and then suspended at the desired concentration (in ppm) in acetone and purified water (50/50 mix by volume) containing 250 ppm of the surfactant PEG400 (polyhydric alcohol esters). The resulting test suspensions were then used in Tests A-F. The test suspension was sprayed to the point of run-off on wheat seedlings. The following day the seedlings were inoculated with a spore dust of Blumeria graminis f. sp. tritici, (also known as Erysiphe graminis f. sp. tritici, the causal agent of wheat powdery mildew) and incubated in a growth chamber at 20° C. for 8 days, after which time visual disease ratings were made. A rating of 100 indicates 100% disease control and a rating of 0 indicates no disease control (relative to the controls). A dash (-) indicates the compound was not tested.

The subject of the next assay is Alternaria solani. Put plainly: Test F: tomato early blight, preventive spray on tomato seedlings. The conditions noted are these: 50 ppm, 100 = 100% disease control, 0 = no control. An excerpt:
(§1) General protocol for preparing test suspensions for Tests A-F: the test compounds were first dissolved in acetone in an amount equal to 3% of the final volume and then suspended at the desired concentration (in ppm) in acetone and purified water (50/50 mix by volume) containing 250 ppm of the surfactant PEG400 (polyhydric alcohol esters). The resulting test suspensions were then used in Tests A-F. The test suspension was sprayed to the point of run-off on tomato seedlings. The following day the seedlings were inoculated with a spore suspension of Alternaria solani (the causal agent of tomato early blight) and incubated in a saturated atmosphere at 27° C. for 48 h, and then moved to a growth chamber at 20° C. for 3 days, after which time visual disease ratings were made. A rating of 100 indicates 100% disease control and a rating of 0 indicates no disease control (relative to the controls). A dash (-) indicates the compound was not tested.

Assay [2] has as its system Puccinia recondita f. sp. tritici. Put plainly: Test B: wheat leaf rust, preventive spray on wheat seedlings. The conditions noted are these: 50 ppm, 100 = 100% disease control, 0 = no control relative to controls. The source says:
General protocol for preparing test suspensions for Tests A-F: the test compounds were first dissolved in acetone in an amount equal to 3% of the final volume and then suspended at the desired concentration (in ppm) in acetone and purified water (50/50 mix by volume) containing 250 ppm of the surfactant PEG400 (polyhydric alcohol esters). The resulting test suspensions were then used in Tests A-F. The test solution was sprayed to the point of run-off on wheat seedlings. The following day the seedlings were inoculated with a spore suspension of Puccinia recondita f. sp. tritici (the causal agent of wheat leaf rust) and incubated in a saturated atmosphere at 20° C. for 24 h, and then moved to a growth chamber at 20° C. for 7 days, after which time disease ratings were made. A rating of 100 indicates 100% disease control and a rating of 0 indicates no disease control (relative to the controls). A dash (-) indicates the compound was not tested.

For a further assay, the system named is Phakopsora pachyrhizi. Put plainly: Test D: Asian soybean rust, preventive spray on soybean seedlings. The conditions noted are these: 50 ppm, 100 = 100% disease control, 0 = no control. An excerpt: General protocol for preparing test suspensions for Tests A-F: the test compounds were first dissolved in acetone in an amount equal to 3% of the final volume and then suspended at the desired concentration (in ppm) in acetone and purified water (50/50 mix by volume) containing 250 ppm of the surfactant PEG400 (polyhydric alcohol esters). The resulting test suspensions were then used in Tests A-F.
The test solution was sprayed to the point of run-off on soybean seedlings. The following day the seedlings were inoculated with a spore suspension of Phakopsora pachyrhizi (the causal agent of Asian soybean rust) and incubated in a saturated atmosphere at 22° C. for 24 h and then moved to a growth chamber at 22° C. for 8 days, after which time visual disease ratings were made.
A rating of 100 indicates 100% disease control and a rating of 0 indicates no disease control (relative to the controls). A dash (-) indicates the compound was not tested.

For the next assay, the system named is Botrytis cinerea. The assay is described as follows: Test E: tomato Botrytis, preventive spray on tomato seedlings. As to conditions: 50 ppm, 100 = 100% disease control, 0 = no control.
Text: as §1, with “Botrytis cinerea” for “Alternaria solani”, “Botrytis)” for “early blight)”, “20°” for “27°”, “24°” for “20°”

A further assay relates to Septoria tritici. The assay is described as follows: Test A: wheat leaf blotch, preventive spray on wheat seedlings. As to conditions: 50 ppm, 100 = 100% disease control, 0 = no control relative to controls. The source says:
General protocol for preparing test suspensions for Tests A-F: the test compounds were first dissolved in acetone in an amount equal to 3% of the final volume and then suspended at the desired concentration (in ppm) in acetone and purified water (50/50 mix by volume) containing 250 ppm of the surfactant PEG400 (polyhydric alcohol esters). The resulting test suspensions were then used in Tests A-F. The test solution was sprayed to the point of run-off on wheat seedlings. The following day the seedlings were inoculated with a spore suspension of Septoria tritici (the causal agent of wheat leaf blotch) and incubated in a saturated atmosphere at 24° C. for 48 h, and then moved to a growth chamber at 20° C. for 17 days, after which time disease ratings were made. A rating of 100 indicates 100% disease control and a rating of 0 indicates no disease control (relative to the controls). A dash (-) indicates the compound was not tested.

Regarding `Cc1cccc([N+](=O)[O-])c1Nc1c(-c2ccc(F)cc2F)c(C)nn1C` [Compound 177], the “Test C disease control rating (wheat powdery mildew)” value (shortened to “Test C disease control rating”) in assay [1] was 50%. The “Test F disease control rating (tomato early blight)” value (“Test F disease control rating” for short) with Alternaria solani was 9%. Also, the “Test B disease control rating (wheat leaf rust)” value (“Test B disease control rating” for short) in assay [2] was determined as 97%. Also, the “Test D disease control rating (Asian soybean rust)” value (“Test D disease control rating” for short) with Phakopsora pachyrhizi is given as 0%. The “Test E disease control rating (tomato Botrytis)” value (from here on “Test E disease control rating”) with Botrytis cinerea stood at 100%. In addition, in the assay on Septoria tritici, the “Test A disease control rating (wheat leaf blotch)” value (“Test A disease control rating” for short) came out at 100%.
As for `Cc1nn(C)c(Nc2ccccc2[N+](=O)[O-])c1-c1c(F)cc(F)cc1Br` [Compound 154], the “Test C disease control rating” value in assay [1] is 98%. Besides, the “Test F disease control rating” value with Alternaria solani is listed as 51%. Besides, the “Test B disease control rating” value in assay [2] is 80%. The “Test D disease control rating” value with Phakopsora pachyrhizi was found to be 0%. Moreover, in the assay on Botrytis cinerea, the “Test E disease control rating” value amounted to 99%. The “Test A disease control rating” value in the assay on Septoria tritici is listed as 99%.
On to `Cc1nn(C)c(Nc2c(Cl)cc(Br)cc2[N+](=O)[O-])c1-c1ccc(F)cc1Cl` [Compound 8], for which the “Test C disease control rating” value in assay [1] is 92%. Also, the “Test F disease control rating” value with Alternaria solani was determined as 73%. In assay [2], the “Test B disease control rating” value is 99%. In the assay with Phakopsora pachyrhizi, the “Test D disease control rating” value is given as 73%. Also, the “Test E disease control rating” value in the assay with Botrytis cinerea amounted to 99%. In addition, the “Test A disease control rating” value in the assay on Septoria tritici worked out at 99%.
In the case of `Cc1nn(C)c(Nc2ccccc2[N+](=O)[O-])c1-c1c(F)cc(F)cc1F` [Compound 149], the “Test C disease control rating” value in assay [1] was found to be 97%. The “Test F disease control rating” value in the assay on Alternaria solani was 96%. For the same molecule, the “Test B disease control rating” value in assay [2] stood at 80%. The “Test D disease control rating” value in the assay on Phakopsora pachyrhizi is listed as 0%. In the assay on Botrytis cinerea, the “Test E disease control rating” value was 99%. In addition, the “Test A disease control rating” value with Septoria tritici amounted to 100%.
For the molecule `CCc1nn(C)c(Nc2ccc(OC)cc2[N+](=O)[O-])c1-c1ccc(F)cc1Cl` [Compound 173], in assay [1], the “Test C disease control rating” value was found to be 98%. The “Test F disease control rating” value in the assay on Alternaria solani was 93%. Besides, the “Test B disease control rating” value in assay [2] is on record as 100%. Besides, the “Test D disease control rating” value in the assay on Phakopsora pachyrhizi was determined as 0%. Also, in the assay with Botrytis cinerea, the “Test E disease control rating” value is 98%. In addition, the “Test A disease control rating” value in the assay on Septoria tritici was found to be 100%.
`COc1ccc(Nc2c(-c3c(F)cc(F)cc3Br)c(C)nn2C)c([N+](=O)[O-])c1` [Compound 164]: in assay [1], the “Test C disease control rating” value is on record as 98%. Further, the “Test F disease control rating” value in the assay on Alternaria solani is 99%. Moreover, the “Test B disease control rating” value in assay [2] came out at 100%. Besides, in the assay with Phakopsora pachyrhizi, the “Test D disease control rating” value stood at 0%. In addition, the “Test E disease control rating” value with Botrytis cinerea is 100%. In the assay on Septoria tritici, the “Test A disease control rating” value came out at 100%.
Turning to `COc1ccc(Nc2c(-c3ccc(C#N)cc3F)c(C)nn2C)c([N+](=O)[O-])c1` [Compound 179], the “Test C disease control rating” value in assay [1] turned out to be 93%. For the same molecule, the “Test F disease control rating” value in the assay with Alternaria solani worked out at 85%. The “Test B disease control rating” value in assay [2] is recorded as 96%. Also, the “Test D disease control rating” value in the assay with Phakopsora pachyrhizi is given as 0%. For the same molecule, in the assay on Botrytis cinerea, the “Test E disease control rating” value amounted to 99%. For the same molecule, the “Test A disease control rating” value in the assay on Septoria tritici was 100%.
For the molecule `Cc1nn(C)c(Nc2c(F)cc(F)cc2[N+](=O)[O-])c1-c1ccc(Cl)cc1Cl` [Compound 9], the “Test C disease control rating” value in assay [1] was found to be 97%. Besides, in the assay with Alternaria solani, the “Test F disease control rating” value was 99%. Besides, the “Test B disease control rating” value in assay [2] came out at 100%. Besides, in the assay with Phakopsora pachyrhizi, the “Test D disease control rating” value was determined as 0%. In the assay with Botrytis cinerea, the “Test E disease control rating” value is 97%. In the assay on Septoria tritici, the “Test A disease control rating” value is 100%.
As for `COc1ccc(Nc2c(-c3ccc(F)cc3F)c(C)nn2C)c([N+](=O)[O-])c1` [Compound 88], in assay [1], the “Test C disease control rating” value is on record as 84%. For the same molecule, the “Test F disease control rating” value in the assay on Alternaria solani was 9%. Further, the “Test B disease control rating” value in assay [2] is reported as 97%. In addition, the “Test D disease control rating” value in the assay on Phakopsora pachyrhizi was 0%. Besides, the “Test E disease control rating” value in the assay with Botrytis cinerea was 99%.
For `COc1ccc(Nc2c(-c3c(F)cccc3F)c(C)nn2C)c([N+](=O)[O-])c1` [Compound 87], in that order: 98%, 93%, 99%, 0% and 98%.
With `Cc1ccc(Nc2c(-c3ccc(F)cc3F)c(C)nn2C)c([N+](=O)[O-])c1` [Compound 107], in assay [1], the “Test C disease control rating” value worked out at 61%. Also, the “Test F disease control rating” value in the assay on Alternaria solani is listed as 0%. Also, in assay [2], the “Test B disease control rating” value is listed as 91%. Also, in the assay on Phakopsora pachyrhizi, the “Test D disease control rating” value is 0%. For the same molecule, the “Test E disease control rating” value in the assay with Botrytis cinerea was 98%.
As for `CCc1ccc(Nc2c(-c3ccc(F)cc3Cl)c(C)nn2C)c([N+](=O)[O-])c1` [Compound 6], the “Test C disease control rating” value in assay [1] was found to be 27%. In addition, the “Test F disease control rating” value in the assay with Alternaria solani worked out at 0%. The “Test B disease control rating” value in assay [2] is on record as 74%. The “Test D disease control rating” value with Phakopsora pachyrhizi came out at 0%. Also, in the assay with Botrytis cinerea, the “Test E disease control rating” value is recorded as 55%.
As for `COc1ccc(Nc2c(-c3c(F)cc(F)cc3Cl)c(C)nn2C)c([N+](=O)[O-])c1` [Compound 89], in assay [1], the “Test C disease control rating” value worked out at 99%. Further, in the assay with Alternaria solani, the “Test F disease control rating” value stood at 99%. Moreover, in assay [2], the “Test B disease control rating” value stood at 100%. In the assay on Phakopsora pachyrhizi, the “Test D disease control rating” value came to 80%. Besides, the “Test E disease control rating” value in the assay with Botrytis cinerea is 99%.
Take `Cc1ccc(Nc2c(-c3c(F)cc(F)cc3Cl)c(C)nn2C)c([N+](=O)[O-])c1` [Compound 106]: the “Test C disease control rating” value in assay [1] came out at 98%. Moreover, in the assay on Alternaria solani, the “Test F disease control rating” value is listed as 68%. Also, the “Test B disease control rating” value in assay [2] is 100%. For the same molecule, in the assay on Phakopsora pachyrhizi, the “Test D disease control rating” value worked out at 0%. Also, the “Test E disease control rating” value in the assay with Botrytis cinerea is recorded as 99%.
As to `COCc1ccc(Nc2c(-c3ccc(F)cc3Cl)c(C)nn2C)c([N+](=O)[O-])c1` [Compound 4], the “Test C disease control rating” value in assay [1] stood at 76%. Besides, the “Test F disease control rating” value in the assay on Alternaria solani stood at 0%. For the same molecule, the “Test B disease control rating” value in assay [2] was 86%. In addition, in the assay on Phakopsora pachyrhizi, the “Test D disease control rating” value was found to be 0%. For the same molecule, the “Test E disease control rating” value in the assay with Botrytis cinerea is reported as 74%.
